Data set [1] in a line: Cellular cytotoxicity assay (Alamar Blue/Resazurin), A549. Format: cell-based. To be noted: human, A549 cells; A549, 72 hours incubation, Resazurin; read-out: A549 Cytotoxicity [pIC50] (converted). As for the experimental part: (§1) The anti-proliferative activity of the compounds as described herein, is evaluated with various solid and hematological cancer cell lines using the Alamar Blue (Resazurin) cell viability assay (O'Brien et al, Eur J Biochem 267, 5421-5426, 2000). Resazurin is reduced to the fluorescent resorufin by cellular dehydrogenase activity, correlating with viable, proliferating cells. Test compounds are dissolved as 20 mM solutions in dimethylsulfoxide (DMSO) and subsequently diluted in semi-logarithmic steps. The cancer cell lines are seeded into 96 well flat bottom plates at respective cell densities in a volume of 200 μl per well to allow continuous proliferation during the experiment. 24 hours after seeding 1 μl each of the compound dilutions is added into each well of the 96 well plate. Wells containing untreated control cells are filled with 200 μl DMEM medium containing 0.5% v:v DMSO. The cells are then incubated with the substances for 72 hours at 37° C. in a humidified atmosphere containing 5% carbon dioxide. To determine the viability of the cells, 20 μl of a Resazurin solution (Sigma; 90 mg/l) are added. After 4 hours incubation at 37° C. the fluorescence is measured at an extinction of 544 nm and an emission of 590 nm. For the calculation of the cell viability the emission value from untreated cells is set as 100% viability and the emission rates of treated cells are set in relation to the values of untreated cells. Viabilities are expressed as % values. The corresponding pIC50 values of the compounds for cytotoxic activity are determined from the concentration-effect curves by means of non-linear regression.
(Resazurin is reduced to fluorescent resorufin, in cell work by metabolically active cells.)

For the next data set, the target named is T1, rHDAC1 (Homo sapiens, UniProt Q13547).
T1 construct: FLAG; made in house
Put plainly: rHDAC1 enzymatic assay (recombinant FLAG-HDAC1). Format: biochemical. To be noted: FLAG-HDAC1 from HEK293; 6 μM Ac-NH-GGK(Ac)-AMC, 3 h at 30° C.; read-out: rHDAC1 [pIC50] (converted). An excerpt:
(§2) Human HDAC1 and HDAC6 fused with the FLAG epitope are stably expressed in HEK293 cells while human HDAC3 and HDAC8 fused with the FLAG epitope are overexpressed in baculo-virus infected insect (Sf21) cells. To ensure stability of FLAG-HDAC3 the SMRT protein is co-expressed in the corresponding insect cells. […] FLAG-HDAC3 and FLAG-HDAC8 are also purified by M2-agarose affinity chromatography after mass cultivation of the insect cells and cell lysis.
(§3) The HDAC enzyme activity assay is done as described by Wegener et al. (Chem. & Biol. 10, 61-68, 2003). Briefly 40 μl of a 1:100 dilution (=0.4 μl) nuclear HeLa extract (mixture of class I and II HDACs), 29 μl enzyme buffer (15 mM Tris HCl pH 8.1, 0.25 mM EDTA, 250 mM NaCl, 10% v:v glycerol) and 1 μl test compound are added to a well of a 96 well microtiter plate and reaction started by addition of 3 μl substrate (Ac-NH-GGK(Ac)-AMC; final concentration 25 μM and final volume […]). […] After incubation at room temperature for further 40 min, fluorescence is measured using a Wallac Victor 1420 multilabel counter (Ex 355 nm, Em 460 nm) for quantification of AMC (7-amino-4-methylcoumarin) generated by trypsine cleavage of the deacetylated peptide. […] The corresponding pIC50 values of the compounds for HDAC inhibitory activity are determined from the concentration-effect curves by means of non-linear regression (Graphpad Prism software).
(§4) The HDAC1, HDAC3 and HDAC6 enzymatic assays are done with slight modifications with recombinant FLAG-HDAC1 and FLAG-HDAC6 proteins isolated from HEK293 cell lysates or recombinant FLAG-HDAC3 isolated from insect cells, respectively. The HDAC8 enzymatic assay using recombinant FLAG-HDAC8 isolated from insect cells is done with a different substrate. About 4.5 ng/well FLAG-HDAC1 and 3.1 ng/well FLAG-HDAC6 (dependent on batches and specific activity) are incubated with 6 μM or 10 μM Ac-NH-GGK(Ac)-AMC substrate, respectively, for 3 h at 30° C. About 1.7 ng/well FLAG-HDAC3 is incubated with 6 μM Ac-NH-GGK(Ac)-AMC substrate for 2 h at 30° C., while approximately 130 ng/well FLAG-HDAC8 is incubated with 50 μM Ac-RHK(Ac)K(Ac)-AMC substrate for 3 h at 30° C. Termination of the reaction and all further steps are done as described for HeLa cell nuclear extracts as a source for HDAC enzymatic activity. The corresponding pIC50 values of the compounds for HDAC1, HDAC3, HDAC6 and HDAC8 inhibitory activity are determined from the concentration-effect curves by means of non-linear regression.

The next data set addresses T2, rHDAC6 (Homo sapiens, UniProt Q9UBN7).
T2 construct: FLAG; made in house
T2 sequence (Q9UBN7 1-1215): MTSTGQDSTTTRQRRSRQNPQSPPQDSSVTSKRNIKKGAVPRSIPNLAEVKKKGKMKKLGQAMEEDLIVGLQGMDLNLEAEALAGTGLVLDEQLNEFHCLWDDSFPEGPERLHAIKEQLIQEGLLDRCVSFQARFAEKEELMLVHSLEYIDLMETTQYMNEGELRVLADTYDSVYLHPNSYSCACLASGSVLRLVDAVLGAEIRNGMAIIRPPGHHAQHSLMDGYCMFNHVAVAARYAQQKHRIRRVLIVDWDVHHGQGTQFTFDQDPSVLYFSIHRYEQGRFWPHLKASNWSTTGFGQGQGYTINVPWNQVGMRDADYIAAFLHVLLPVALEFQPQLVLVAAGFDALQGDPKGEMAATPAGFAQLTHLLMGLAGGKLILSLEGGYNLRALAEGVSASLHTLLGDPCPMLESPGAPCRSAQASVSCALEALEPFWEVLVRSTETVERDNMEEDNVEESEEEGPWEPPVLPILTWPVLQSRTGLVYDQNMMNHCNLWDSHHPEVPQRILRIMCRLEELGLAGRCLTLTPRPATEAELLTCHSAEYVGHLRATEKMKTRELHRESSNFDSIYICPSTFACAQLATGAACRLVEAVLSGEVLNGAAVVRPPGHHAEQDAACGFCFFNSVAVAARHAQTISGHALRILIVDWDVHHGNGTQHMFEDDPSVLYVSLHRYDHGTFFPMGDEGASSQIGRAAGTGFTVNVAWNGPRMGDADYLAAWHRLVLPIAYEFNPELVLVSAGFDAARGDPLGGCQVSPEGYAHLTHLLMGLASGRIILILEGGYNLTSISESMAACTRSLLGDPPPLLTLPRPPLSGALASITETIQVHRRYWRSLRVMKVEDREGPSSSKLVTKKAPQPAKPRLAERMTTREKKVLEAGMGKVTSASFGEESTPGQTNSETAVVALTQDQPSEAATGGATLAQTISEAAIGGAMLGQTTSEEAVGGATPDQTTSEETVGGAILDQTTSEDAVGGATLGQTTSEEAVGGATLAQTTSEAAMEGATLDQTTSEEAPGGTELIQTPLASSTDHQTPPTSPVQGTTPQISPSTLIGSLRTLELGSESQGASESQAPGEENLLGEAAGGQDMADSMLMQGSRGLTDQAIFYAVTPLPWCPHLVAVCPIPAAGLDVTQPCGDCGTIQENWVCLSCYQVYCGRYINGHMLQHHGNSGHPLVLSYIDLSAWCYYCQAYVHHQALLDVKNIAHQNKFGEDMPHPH
Put plainly: rHDAC6 enzymatic assay (recombinant FLAG-HDAC6). It counts as biochemical. To be noted: FLAG-HDAC6 from HEK293; 10 μM Ac-NH-GGK(Ac)-AMC, 3 h at 30° C.; read-out: rHDAC6 [pIC50] (converted).
Excerpt: as §2, §3, §4

Another data set deals with T3, rHDAC8 (Homo sapiens, UniProt Q9BY41).
T3 construct: FLAG; made in house; host or cells: baculovirus-infected Sf21 insect cells
T3 sequence (Q9BY41 1-377): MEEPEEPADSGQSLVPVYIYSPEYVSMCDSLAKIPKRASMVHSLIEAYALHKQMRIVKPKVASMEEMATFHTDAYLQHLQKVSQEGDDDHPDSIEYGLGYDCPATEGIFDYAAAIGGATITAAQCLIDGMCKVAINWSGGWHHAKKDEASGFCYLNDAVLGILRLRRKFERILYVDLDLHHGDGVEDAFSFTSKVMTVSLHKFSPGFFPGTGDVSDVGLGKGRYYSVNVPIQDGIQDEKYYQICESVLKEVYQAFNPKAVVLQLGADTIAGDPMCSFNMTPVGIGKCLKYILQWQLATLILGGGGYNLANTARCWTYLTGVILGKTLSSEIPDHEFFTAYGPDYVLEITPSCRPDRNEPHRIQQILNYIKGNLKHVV
Put plainly: rHDAC8 enzymatic assay (recombinant FLAG-HDAC8). To be noted: FLAG-HDAC8 from insect cells; 50 μM Ac-RHK(Ac)K(Ac)-AMC, 3 h at 30° C.; read-out: rHDAC8 [pIC50] (converted). Format: biochemical.
Excerpt: as §2, §3, §4

A short description of data set [2]: Cellular cytotoxicity assay (Alamar Blue/Resazurin), HeLa. It counts as cell-based. To be noted: human, HeLa cells, 72 hours incubation, Resazurin, read-out: HeLa Cytotoxicity [pIC50] (converted). How it is done: as §1
The target of the next data set is T4, rHDAC3 (Homo sapiens, UniProt O15379).
T4 construct: FLAG; made in house; host or cells: baculovirus-infected Sf21 insect cells
Put plainly: rHDAC3 enzymatic assay (recombinant FLAG-HDAC3). It counts as biochemical. The note with it: FLAG-HDAC3 from insect cells; 6 μM Ac-NH-GGK(Ac)-AMC, 2 h at 30° C.; read-out: rHDAC3 [pIC50] (converted).
Excerpt: as §2, §3, §4

Structures are written as SMILES. Where a name gives a salt, the structure may show the parent alone.

Experimental findings from patent US8575193B2, “N-substituted tetrahydroisoquinoline/isoindoline hydroxamic acid compounds” (4SC AG, priority 2008, dated 2013) are described below.

For orientation: melting point means the temperature of the solid-liquid transition.

T4 sequence (O15379 whole entry): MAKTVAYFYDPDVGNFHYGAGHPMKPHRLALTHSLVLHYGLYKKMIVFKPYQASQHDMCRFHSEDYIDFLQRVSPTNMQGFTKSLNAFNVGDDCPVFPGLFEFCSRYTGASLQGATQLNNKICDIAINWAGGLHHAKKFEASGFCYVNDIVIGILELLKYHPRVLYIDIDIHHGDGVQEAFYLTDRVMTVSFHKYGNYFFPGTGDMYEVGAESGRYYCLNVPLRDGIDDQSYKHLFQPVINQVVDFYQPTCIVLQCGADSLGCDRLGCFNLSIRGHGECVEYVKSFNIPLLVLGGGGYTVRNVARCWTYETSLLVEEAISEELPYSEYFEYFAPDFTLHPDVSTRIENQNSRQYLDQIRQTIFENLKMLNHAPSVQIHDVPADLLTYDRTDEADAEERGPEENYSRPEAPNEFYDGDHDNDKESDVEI
T4 sequence (Q9Y618 whole entry partner): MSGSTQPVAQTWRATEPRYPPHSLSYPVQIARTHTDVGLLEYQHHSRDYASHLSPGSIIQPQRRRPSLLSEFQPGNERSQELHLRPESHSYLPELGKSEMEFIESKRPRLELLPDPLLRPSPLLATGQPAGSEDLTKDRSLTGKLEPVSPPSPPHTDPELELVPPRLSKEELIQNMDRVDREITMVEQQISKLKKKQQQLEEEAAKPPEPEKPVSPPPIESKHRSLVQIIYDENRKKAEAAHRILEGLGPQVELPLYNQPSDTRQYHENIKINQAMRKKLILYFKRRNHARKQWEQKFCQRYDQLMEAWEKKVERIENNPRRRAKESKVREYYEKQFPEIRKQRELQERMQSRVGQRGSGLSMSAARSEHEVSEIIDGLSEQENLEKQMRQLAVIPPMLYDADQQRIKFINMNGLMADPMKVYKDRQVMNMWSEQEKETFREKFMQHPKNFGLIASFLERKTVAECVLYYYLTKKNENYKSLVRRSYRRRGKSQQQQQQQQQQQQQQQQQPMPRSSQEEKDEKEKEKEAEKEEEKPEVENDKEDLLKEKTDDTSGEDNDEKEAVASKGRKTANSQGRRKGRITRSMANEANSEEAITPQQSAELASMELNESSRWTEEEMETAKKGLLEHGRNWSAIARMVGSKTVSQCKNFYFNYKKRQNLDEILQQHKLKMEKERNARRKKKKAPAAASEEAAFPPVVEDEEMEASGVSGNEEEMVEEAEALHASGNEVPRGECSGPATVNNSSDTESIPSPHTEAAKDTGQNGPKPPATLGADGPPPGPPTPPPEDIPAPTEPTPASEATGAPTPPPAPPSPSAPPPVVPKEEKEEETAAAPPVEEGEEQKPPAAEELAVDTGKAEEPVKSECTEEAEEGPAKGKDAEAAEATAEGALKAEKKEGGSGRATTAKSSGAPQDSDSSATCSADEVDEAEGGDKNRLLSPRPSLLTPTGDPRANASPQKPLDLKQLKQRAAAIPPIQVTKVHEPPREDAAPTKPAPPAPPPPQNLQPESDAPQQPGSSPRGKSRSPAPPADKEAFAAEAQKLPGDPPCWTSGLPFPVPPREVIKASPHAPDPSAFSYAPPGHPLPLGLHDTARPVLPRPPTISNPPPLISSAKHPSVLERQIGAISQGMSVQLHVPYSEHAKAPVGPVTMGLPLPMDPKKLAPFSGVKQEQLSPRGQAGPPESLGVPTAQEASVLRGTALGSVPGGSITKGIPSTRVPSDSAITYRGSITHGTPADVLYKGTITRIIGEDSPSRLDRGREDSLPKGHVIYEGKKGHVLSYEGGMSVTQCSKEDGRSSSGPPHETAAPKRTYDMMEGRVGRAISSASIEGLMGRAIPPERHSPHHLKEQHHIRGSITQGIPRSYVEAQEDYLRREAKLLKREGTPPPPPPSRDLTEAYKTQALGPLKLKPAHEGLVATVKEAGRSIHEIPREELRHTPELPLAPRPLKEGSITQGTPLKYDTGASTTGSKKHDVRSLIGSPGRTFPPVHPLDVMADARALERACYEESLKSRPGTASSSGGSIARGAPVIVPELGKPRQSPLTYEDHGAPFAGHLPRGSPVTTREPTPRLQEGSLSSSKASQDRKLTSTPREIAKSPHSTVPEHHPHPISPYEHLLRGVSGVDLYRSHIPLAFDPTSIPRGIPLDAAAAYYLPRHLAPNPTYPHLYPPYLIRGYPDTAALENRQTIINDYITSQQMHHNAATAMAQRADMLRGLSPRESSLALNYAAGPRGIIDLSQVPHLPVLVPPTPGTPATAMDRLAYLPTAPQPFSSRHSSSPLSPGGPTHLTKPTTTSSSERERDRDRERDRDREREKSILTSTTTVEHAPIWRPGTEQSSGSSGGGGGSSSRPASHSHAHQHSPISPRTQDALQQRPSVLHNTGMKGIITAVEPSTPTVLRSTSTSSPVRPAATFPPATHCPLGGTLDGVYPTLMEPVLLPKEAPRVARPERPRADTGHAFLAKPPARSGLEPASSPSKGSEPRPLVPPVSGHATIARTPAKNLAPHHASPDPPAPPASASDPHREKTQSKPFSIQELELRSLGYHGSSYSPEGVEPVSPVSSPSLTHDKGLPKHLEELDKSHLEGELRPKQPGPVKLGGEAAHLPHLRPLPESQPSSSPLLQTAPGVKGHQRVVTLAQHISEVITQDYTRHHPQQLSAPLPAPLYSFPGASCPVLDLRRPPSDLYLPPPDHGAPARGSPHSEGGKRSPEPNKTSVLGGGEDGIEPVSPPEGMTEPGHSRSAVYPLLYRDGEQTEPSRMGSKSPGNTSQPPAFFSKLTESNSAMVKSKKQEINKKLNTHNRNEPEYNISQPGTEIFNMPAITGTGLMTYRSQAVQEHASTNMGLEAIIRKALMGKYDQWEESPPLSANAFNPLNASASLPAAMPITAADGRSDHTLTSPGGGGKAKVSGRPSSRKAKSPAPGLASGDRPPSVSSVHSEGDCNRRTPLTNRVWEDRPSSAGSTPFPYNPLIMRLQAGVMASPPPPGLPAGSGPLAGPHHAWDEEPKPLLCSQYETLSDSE
T1 sequence (Q13547 whole entry): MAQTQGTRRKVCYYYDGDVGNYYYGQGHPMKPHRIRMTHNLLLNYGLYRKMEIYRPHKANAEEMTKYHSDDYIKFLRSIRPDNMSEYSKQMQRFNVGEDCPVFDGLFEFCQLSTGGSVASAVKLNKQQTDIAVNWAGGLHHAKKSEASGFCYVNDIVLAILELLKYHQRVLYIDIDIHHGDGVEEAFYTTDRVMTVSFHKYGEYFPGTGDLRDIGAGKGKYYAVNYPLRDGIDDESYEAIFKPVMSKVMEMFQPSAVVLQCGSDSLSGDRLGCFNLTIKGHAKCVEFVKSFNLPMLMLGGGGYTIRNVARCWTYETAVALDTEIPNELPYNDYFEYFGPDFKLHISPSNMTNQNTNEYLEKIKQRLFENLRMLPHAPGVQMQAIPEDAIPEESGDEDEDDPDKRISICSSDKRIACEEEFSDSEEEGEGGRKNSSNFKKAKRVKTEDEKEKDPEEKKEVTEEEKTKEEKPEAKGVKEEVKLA

In turn, `Cc1nccn1CCC(=O)N1CCc2ccc(C(=O)NO)cc2C1.Cl` returned a melting point of 63 °C.
In the case of `O=C(NO)c1ccc2c(c1)CCN(C(=O)Cc1ccccn1)C2` [Example 2, N-Hydroxy-2-(pyridin-2-ylacetyl)-1,2,3,4-tetrahydroisoquinoline-6-carboxamide hydrochloride], the IC50 at 72 h in data set [1] is greater than 100 µM. In addition, the IC50 is 10 to 100 µM at rHDAC1 and 0.001 to 0.1 µM at rHDAC6.
As for `O=C(NO)c1ccc2c(c1)CCN(C(=O)Cc1ccccn1)C2` [Example 14, N-Hydroxy-2-(pyridin-2-ylacetyl)-1,2,3,4-tetrahydroisoquinoline-6-carboxamide hydrochloride], the IC50 at rHDAC8 was 1 to 10 µM; on rHDAC3 it was 10 to 100 µM. In addition, the IC50 at 72 h in data set [2] is 1 to 100 µM.
Regarding `CC(=O)N1CCc2ccc(C(=O)NO)cc2C1` [Example 25, 2-Acetyl-N-hydroxy-1,2,3,4-tetrahydroisoquinoline-7-carboxamide], the melting point was 177 to 181 °C.
Same read-out and setting: the result for `O=C(NO)c1ccc2c(c1)CN(C(=O)c1ccc3ccccc3n1)C2` [Example 27, N-Hydroxy-2-(quinolin-2-ylcarbonyl)isoindoline-5-carboxamide] reads 162 to 166 °C.
Still for that read-out and setting: the result for `O=C(NO)c1ccc2c(c1)CN(C(=O)c1ccc3ncccc3c1)C2` [Example 28, N-Hydroxy-2-(quinolin-6-ylcarbonyl)isoindoline-5-carboxamide] reads 208 to 210 °C; that for `O=C(NO)c1ccc2c(c1)CN(C(=O)c1cc3ccccc3cn1)C2` [Example 29, N-Hydroxy-2-(isoquinolin-3-ylcarbonyl)isoindoline-5-carboxamide], 208 to 210 °C.
